Laboratory results as given in paper PMC4657039 (Assay and Drug Development Technologies, 2014).

Assays:
human Cav2.1/β4/α2δ1 = human Cav2.1/β4/α2δ1 (Homo sapiens, UniProt O00555); type: cell-based
human Cav2.2/β3/α2δ1 [1] = biological target: T1, human Cav2.2/β3/α2δ1 (Homo sapiens, UniProt Q00975); type: cell-based
human Cav3.2 = human Cav3.2 (Homo sapiens, UniProt O95180); type: cell-based
human Cav1.2/β2/α2δ1 = human Cav1.2/β2/α2δ1 (Homo sapiens, UniProt Q13936)
human Cav2.2/β3/α2δ1 [2] = biological target: T1, human Cav2.2/β3/α2δ1; assay: IonWorks Barracuda repetitive test pulse train; type: cell-based; conditions: Cav2.2, 30 pulse train 0.1 Hz

Chain of human Cav3.2 (O95180 whole entry): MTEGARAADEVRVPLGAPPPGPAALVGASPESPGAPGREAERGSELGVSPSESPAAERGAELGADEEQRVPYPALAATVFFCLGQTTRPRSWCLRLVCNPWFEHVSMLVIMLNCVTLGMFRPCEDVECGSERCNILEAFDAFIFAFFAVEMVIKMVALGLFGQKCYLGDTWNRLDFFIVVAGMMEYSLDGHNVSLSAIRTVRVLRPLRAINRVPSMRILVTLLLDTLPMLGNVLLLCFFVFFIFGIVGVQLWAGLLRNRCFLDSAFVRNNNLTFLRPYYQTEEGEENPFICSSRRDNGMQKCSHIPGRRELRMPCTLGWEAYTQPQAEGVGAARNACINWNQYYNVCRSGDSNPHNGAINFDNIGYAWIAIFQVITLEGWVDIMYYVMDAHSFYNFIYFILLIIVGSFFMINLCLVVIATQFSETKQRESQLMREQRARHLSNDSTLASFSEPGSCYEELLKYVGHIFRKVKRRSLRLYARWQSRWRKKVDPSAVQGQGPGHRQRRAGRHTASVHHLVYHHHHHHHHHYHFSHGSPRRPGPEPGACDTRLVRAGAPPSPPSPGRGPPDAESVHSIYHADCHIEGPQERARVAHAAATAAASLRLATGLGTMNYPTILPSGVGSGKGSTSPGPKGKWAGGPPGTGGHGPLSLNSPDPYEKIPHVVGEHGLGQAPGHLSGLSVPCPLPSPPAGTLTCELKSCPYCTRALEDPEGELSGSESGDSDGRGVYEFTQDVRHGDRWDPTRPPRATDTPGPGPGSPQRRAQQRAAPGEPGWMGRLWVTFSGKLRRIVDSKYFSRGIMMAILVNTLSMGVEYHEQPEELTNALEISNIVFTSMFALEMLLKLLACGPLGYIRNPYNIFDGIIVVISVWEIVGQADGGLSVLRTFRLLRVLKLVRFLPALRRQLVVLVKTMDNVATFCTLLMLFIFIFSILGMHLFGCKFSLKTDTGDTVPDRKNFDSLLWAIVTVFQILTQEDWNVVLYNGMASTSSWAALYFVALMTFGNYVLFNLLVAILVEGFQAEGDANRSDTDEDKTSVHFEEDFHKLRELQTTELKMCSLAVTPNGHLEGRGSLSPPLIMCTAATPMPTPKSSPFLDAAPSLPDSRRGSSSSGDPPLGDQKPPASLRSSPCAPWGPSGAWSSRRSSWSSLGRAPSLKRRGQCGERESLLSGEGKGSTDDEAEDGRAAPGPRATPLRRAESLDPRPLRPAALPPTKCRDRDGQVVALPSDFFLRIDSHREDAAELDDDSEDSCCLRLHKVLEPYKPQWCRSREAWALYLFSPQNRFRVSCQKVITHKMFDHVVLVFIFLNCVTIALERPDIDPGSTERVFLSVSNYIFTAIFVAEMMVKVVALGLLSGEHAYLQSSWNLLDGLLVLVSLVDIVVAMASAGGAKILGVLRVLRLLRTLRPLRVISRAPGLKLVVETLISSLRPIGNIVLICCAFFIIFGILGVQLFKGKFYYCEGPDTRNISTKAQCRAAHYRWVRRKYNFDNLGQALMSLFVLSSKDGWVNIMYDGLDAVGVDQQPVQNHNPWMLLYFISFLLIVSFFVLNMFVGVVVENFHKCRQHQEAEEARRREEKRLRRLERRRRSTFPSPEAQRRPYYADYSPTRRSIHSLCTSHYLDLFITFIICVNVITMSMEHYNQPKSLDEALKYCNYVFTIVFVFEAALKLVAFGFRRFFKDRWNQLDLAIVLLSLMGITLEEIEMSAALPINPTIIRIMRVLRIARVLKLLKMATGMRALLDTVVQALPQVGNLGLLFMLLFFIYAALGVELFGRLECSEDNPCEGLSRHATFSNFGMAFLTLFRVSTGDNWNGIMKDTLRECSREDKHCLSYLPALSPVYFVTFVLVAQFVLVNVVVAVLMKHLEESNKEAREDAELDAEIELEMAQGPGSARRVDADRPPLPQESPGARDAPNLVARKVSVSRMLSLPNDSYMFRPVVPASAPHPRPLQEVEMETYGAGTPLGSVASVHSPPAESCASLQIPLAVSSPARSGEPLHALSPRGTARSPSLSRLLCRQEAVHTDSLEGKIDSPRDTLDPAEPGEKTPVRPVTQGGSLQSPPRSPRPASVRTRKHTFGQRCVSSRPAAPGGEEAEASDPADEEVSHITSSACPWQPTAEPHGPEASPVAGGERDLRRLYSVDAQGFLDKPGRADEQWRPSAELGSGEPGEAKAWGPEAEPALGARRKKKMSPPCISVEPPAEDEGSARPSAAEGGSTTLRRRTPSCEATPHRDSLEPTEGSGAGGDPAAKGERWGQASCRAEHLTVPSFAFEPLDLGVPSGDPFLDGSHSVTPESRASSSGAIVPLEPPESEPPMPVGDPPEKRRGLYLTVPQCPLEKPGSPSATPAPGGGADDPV

Which “effect on Cav2.1 at high concentration” value (human Cav2.1/β4/α2δ1; concentrations ≥10 μM) does the source give for `COC(=O)C1=C(C)NC(C)=C([N+](=O)[O-])[C@H]1c1ccccc1C(F)(F)F` [BAY K8644, (S)-(−)-BAY K8644] here?
The value was “nonspecific inhibition”.

What about the “effect on Cav2.2 at high concentration” value (human Cav2.2/β3/α2δ1 [1]; concentrations ≥10 μM) of the same compound?
The value was “nonspecific inhibition”.

What about the “effect on Cav3.2 at high concentration” value (human Cav3.2; concentrations ≥10 μM) of the same compound?
The value was “nonspecific inhibition”.

And the “effect on Cav1.2 currents” value (human Cav1.2/β2/α2δ1; 0.3 μM, test pulse 10 mV, holding −90 mV, 60-s CP to −50 mV)?
Its value is “potentiated”.

And the “effect on Cav1.2 at high concentration” value (human Cav1.2/β2/α2δ1; concentrations ≥10 μM)?
The value was “nonspecific inhibition”.

What about the “extent of potentiation of Cav1.2 channels” value (human Cav1.2/β2/α2δ1; dose–response, Fig. 2B) of the same compound?
The value was “twofold potentiation”.

Which results are given for `COCC(=O)O[C@]1(CCN(C)CCCc2nc3ccccc3[nH]2)CCc2cc(F)ccc2[C@@H]1C(C)C` [Mibefradil, mibefradil]?
Cav2.2 blocking characteristics in multiple mode assay (human Cav2.2/β3/α2δ1 [1]; current traces Fig. 5B, 10 μM mibefradil, 30 μM verapamil): use-dependent, but not inactivation-dependent block augmentation; potency of use-dependent block in Cav3.2 versus Cav1.2 (human Cav3.2; use-dependent block, multiple mode assay): fourfold more potent; potency of inhibition at TP30 compared with TP1 (human Cav2.2/β3/α2δ1 [2]): about seven times more potent

`COC(=O)C1=C(C)NC(C)=C(C(=O)OC)C1c1ccccc1[N+](=O)[O-]` [Nifedipine, nifedipine] was tested. Which “sensitivity of Cav3.2 channels” value (human Cav3.2; concentrations up to 3 μM (not shown)) did it give?
Its value is “insensitive”.

How did the IC50 (human Cav2.1/β4/α2δ1) turn out when `O=c1[nH]c2ccccc2n1C1CCN(CCCC(c2ccc(F)cc2)c2ccc(F)cc2)CC1` [Pimozide, pimozide] was run?
Its IC50 is > 30 µM.

What about the IC50 (human Cav2.2/β3/α2δ1 [1]) of the same compound?
The IC50 was > 30 µM.
